This is an account of results in ChEMBL document CHEMBL5465560, “Selectivity Literature for EUbOPEN Chemogenomic Library” (2024).

A word on the IC50: it is the concentration needed to halve the response being measured.

For test [1], the target named is T1, Interleukin-1 receptor-associated kinase 4 (Homo sapiens) (UniProt Q9NWZ3).
T1 sequence (whole entry): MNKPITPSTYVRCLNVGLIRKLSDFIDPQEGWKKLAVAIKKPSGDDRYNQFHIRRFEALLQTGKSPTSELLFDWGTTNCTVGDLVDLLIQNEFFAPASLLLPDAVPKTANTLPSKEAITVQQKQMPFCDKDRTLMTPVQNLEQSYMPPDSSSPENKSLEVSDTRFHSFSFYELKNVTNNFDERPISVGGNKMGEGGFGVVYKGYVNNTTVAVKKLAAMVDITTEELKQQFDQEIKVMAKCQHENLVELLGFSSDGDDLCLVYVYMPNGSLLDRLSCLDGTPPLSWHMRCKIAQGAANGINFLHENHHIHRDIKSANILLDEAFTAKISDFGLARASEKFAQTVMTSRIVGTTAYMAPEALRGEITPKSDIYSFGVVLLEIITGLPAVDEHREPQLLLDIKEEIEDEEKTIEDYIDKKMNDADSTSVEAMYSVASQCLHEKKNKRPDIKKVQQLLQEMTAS
Description: Selectivity interaction (KinomeScan (DiscoverX)) EUB0000607a IRAK4. As to conditions: at 10 µM.

Test [2] concerns the target Atypical kinase COQ8A, mitochondrial (Homo sapiens, UniProt Q8NI60). As to conditions: at 10 µM.
Test [3] addresses Ribosomal protein S6 kinase alpha-2 (Homo sapiens) (UniProt Q15349). The test is described as follows: Selectivity interaction (Kinome Scan (DiscoverX)) EUB0000229b RPS6KA2. The conditions noted are these: at 10 µM.
In test [4] the target is T2, Serine/threonine-protein kinase LATS1 (Homo sapiens) (UniProt O95835).
T2 sequence (whole entry): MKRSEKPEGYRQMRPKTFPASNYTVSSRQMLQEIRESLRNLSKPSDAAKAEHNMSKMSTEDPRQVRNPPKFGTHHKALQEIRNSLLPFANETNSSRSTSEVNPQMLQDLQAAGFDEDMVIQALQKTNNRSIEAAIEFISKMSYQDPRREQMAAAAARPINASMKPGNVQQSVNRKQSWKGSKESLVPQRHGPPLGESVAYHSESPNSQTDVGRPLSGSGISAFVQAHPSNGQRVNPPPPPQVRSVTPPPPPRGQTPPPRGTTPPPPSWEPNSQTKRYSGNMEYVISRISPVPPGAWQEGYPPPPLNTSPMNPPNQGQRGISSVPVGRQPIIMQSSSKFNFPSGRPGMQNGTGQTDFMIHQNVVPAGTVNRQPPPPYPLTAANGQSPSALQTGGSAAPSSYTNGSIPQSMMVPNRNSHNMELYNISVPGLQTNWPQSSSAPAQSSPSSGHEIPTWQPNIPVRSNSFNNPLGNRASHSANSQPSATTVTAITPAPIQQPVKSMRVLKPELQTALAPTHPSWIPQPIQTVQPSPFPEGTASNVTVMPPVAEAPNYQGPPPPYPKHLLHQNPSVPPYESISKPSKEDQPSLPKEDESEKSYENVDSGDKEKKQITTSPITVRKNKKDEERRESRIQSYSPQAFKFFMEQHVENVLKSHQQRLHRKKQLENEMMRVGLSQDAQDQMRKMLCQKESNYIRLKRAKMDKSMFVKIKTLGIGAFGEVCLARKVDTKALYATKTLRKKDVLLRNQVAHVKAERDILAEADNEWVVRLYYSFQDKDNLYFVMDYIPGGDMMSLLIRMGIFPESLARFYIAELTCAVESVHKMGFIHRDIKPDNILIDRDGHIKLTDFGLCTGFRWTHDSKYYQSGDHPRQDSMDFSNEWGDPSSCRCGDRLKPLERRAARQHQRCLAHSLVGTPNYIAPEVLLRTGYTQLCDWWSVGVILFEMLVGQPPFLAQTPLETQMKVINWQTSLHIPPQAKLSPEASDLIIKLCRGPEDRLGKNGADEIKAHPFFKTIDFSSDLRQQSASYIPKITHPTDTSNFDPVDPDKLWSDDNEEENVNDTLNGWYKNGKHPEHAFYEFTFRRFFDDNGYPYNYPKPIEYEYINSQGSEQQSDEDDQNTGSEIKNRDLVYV
The test is described as follows: Selectivity interaction (KinomeScan (DiscoverX)) EUB0000655a LATS1. As to conditions: at 10 µM.

Test [5] concerns the target Myosin light chain kinase 2, skeletal/cardiac muscle (Homo sapiens) (UniProt Q9H1R3). The test is described as follows: Selectivity interaction (KinomeScan (DiscoverX)) EUB0001079a MYLK2. As to conditions: at 1 µM.
The target in the next test is Thromboxane A2 receptor (Homo sapiens, UniProt P21731). Description: Selectivity interaction (Thromboxane A2 receptor binding assay, human recombinant) EUB0000877a TBXA2R.
Chain of Thromboxane A2 receptor (P21731 whole entry): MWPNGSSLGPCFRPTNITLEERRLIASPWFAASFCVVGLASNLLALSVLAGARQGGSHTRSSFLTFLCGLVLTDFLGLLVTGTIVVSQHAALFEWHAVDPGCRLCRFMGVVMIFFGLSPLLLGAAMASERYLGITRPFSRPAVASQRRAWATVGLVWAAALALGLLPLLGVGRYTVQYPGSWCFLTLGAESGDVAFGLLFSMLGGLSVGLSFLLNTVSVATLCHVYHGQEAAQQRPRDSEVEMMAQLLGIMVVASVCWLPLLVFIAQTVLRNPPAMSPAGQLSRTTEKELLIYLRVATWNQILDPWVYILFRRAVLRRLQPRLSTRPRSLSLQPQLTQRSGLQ
For test [6], the target named is 1-phosphatidylinositol 3-phosphate 5-kinase (Homo sapiens) (UniProt Q9Y2I7). The test is described as follows: Selectivity interaction (ActivX KiNativ screen (kinase selectivity in THP-1 cell lysates)) EUB0000639a PIKFYVE. Type of test: subcellular. As to conditions: lysate.
Chain of 1-phosphatidylinositol 3-phosphate 5-kinase (Homo sapiens) (Q9Y2I7 whole entry): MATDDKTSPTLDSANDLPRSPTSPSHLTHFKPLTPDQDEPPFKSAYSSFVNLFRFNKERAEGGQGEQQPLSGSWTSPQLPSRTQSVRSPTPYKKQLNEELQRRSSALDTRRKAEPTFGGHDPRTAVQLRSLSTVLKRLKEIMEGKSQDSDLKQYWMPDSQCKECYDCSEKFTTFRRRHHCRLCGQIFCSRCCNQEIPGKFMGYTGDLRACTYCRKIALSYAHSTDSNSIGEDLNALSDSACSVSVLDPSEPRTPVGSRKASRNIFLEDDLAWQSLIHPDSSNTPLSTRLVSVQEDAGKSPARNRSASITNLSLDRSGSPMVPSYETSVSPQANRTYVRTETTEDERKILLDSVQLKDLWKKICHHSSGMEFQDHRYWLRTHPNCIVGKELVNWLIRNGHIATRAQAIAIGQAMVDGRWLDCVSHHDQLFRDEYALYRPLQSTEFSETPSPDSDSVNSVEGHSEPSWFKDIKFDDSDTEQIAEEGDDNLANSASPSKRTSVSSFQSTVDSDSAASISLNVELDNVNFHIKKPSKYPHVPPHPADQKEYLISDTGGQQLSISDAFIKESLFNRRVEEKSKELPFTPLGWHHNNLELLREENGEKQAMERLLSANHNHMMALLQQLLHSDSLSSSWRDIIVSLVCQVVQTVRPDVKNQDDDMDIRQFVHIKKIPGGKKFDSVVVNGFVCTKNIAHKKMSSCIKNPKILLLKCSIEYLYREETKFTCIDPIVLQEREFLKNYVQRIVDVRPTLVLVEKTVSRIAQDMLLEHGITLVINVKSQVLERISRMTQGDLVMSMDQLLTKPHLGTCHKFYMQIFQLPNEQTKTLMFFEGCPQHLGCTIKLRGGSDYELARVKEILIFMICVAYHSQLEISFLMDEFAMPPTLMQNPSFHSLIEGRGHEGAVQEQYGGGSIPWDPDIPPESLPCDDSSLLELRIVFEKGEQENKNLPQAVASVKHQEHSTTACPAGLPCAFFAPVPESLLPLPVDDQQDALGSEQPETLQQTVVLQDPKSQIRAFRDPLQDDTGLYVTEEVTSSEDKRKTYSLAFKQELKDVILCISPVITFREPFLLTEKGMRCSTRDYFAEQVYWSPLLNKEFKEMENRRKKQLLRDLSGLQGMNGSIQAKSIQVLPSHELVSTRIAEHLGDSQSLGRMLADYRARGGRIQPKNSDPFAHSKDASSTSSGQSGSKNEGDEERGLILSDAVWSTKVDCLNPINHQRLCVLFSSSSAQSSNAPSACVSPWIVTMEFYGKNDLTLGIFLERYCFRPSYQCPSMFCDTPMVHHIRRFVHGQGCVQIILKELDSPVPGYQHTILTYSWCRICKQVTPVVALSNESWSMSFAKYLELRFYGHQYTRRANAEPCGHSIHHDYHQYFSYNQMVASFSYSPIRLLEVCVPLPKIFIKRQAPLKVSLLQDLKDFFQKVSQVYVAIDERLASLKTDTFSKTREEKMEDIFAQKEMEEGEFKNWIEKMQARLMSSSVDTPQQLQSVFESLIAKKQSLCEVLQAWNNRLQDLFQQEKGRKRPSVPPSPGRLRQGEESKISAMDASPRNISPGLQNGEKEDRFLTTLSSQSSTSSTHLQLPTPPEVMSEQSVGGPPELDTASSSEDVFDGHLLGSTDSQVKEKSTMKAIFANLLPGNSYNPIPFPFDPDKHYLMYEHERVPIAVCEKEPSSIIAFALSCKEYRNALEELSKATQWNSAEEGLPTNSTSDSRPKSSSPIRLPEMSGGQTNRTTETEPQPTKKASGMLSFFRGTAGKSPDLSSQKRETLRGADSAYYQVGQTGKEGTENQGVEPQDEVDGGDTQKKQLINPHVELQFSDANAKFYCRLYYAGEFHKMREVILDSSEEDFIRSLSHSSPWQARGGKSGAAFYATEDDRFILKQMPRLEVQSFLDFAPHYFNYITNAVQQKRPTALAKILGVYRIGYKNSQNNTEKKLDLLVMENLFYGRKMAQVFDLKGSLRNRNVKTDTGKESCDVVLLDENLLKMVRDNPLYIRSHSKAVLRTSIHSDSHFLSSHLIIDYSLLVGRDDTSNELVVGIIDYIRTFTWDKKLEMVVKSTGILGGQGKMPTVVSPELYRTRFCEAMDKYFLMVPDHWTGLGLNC
For test [7], the target named is T3, Protein kinase C epsilon type (Homo sapiens) (UniProt Q02156).
T3 sequence (whole entry): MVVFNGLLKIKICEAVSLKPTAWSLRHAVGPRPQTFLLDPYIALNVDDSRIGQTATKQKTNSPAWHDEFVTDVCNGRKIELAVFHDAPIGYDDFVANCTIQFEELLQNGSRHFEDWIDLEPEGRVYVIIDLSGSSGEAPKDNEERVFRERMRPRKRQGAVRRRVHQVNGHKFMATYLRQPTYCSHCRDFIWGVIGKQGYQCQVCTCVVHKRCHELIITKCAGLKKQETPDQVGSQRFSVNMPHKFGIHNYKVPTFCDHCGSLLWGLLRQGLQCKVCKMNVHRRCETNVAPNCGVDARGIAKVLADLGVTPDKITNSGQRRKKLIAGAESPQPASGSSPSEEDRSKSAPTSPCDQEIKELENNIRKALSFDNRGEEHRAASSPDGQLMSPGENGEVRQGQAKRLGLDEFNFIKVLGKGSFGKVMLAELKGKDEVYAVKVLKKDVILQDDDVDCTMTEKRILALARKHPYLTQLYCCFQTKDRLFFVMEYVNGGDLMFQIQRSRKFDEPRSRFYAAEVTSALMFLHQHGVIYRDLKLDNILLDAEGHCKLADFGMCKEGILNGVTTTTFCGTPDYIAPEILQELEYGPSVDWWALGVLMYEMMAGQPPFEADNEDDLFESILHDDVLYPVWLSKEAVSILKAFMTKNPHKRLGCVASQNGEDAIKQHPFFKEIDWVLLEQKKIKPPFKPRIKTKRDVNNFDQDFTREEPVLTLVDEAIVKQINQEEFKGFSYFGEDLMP
Description: Selectivity interaction (KinomeScan (DiscoverX)) EUB0000092b PRKCE. As to conditions: at 10 µM.

Chain of Ribosomal protein S6 kinase alpha-2 (Homo sapiens) (Q15349 whole entry): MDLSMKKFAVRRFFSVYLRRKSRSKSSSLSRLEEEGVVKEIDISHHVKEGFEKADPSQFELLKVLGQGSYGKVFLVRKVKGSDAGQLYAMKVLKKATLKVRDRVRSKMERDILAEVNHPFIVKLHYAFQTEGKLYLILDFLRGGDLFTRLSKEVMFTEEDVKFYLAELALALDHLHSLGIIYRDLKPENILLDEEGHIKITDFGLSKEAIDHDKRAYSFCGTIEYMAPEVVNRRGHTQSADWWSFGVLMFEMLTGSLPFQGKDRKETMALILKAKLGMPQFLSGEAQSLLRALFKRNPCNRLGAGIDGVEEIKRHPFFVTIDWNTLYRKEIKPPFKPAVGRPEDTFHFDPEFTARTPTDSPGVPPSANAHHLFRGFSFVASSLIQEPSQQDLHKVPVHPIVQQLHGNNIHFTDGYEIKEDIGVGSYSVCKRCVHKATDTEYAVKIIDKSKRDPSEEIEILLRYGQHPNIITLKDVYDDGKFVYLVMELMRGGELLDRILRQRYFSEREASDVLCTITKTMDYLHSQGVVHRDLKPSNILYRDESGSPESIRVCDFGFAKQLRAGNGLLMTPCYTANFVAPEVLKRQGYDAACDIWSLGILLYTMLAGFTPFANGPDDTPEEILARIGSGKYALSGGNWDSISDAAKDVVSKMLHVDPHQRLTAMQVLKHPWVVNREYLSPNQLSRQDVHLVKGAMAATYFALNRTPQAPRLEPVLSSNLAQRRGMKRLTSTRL
Chain of Atypical kinase COQ8A, mitochondrial (Q8NI60 163-647 limits assumed): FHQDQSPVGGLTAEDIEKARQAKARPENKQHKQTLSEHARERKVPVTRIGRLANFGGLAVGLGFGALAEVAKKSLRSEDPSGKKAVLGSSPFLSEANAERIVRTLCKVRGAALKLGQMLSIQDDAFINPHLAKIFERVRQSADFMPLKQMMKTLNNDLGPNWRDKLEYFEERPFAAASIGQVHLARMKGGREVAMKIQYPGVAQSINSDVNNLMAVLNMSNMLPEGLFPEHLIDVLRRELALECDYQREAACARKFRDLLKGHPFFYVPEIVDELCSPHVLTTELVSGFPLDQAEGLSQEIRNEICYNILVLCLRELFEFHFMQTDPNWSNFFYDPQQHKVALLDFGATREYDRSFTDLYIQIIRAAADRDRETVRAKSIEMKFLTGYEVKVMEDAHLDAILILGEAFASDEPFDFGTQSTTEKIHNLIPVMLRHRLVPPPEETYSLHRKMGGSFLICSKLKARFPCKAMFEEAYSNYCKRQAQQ
Chain of Myosin light chain kinase 2, skeletal/cardiac muscle (Homo sapiens) (Q9H1R3 whole entry): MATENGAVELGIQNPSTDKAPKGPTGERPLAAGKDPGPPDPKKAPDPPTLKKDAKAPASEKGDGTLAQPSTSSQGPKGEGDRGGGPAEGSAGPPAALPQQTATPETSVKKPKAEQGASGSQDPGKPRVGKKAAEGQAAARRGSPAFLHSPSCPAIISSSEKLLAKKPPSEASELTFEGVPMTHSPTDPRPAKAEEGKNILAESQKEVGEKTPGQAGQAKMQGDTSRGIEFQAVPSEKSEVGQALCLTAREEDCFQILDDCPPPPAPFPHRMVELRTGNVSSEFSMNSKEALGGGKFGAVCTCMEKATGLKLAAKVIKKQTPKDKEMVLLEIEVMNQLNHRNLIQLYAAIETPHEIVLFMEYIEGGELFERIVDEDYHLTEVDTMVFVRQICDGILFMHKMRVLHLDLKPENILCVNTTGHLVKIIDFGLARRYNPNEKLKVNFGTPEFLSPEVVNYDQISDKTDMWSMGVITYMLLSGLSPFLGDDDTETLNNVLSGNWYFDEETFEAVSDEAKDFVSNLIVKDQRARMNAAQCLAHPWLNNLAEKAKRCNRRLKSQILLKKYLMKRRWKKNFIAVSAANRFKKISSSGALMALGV

Compound `CNC(=O)Nc1ccc(-c2nc(N3CC4CCC(C3)O4)c3cnn(C4CCC5(CC4)OCCO5)c3n2)cc1` displayed a % of control in test [1] of 100%.
Take `Cc1cc([C@@H](C)Nc2ccccc2C(=O)O)c2nc(N3CCOCC3)cc(=O)n2c1` [AZD-6482]: the % of control in test [2] was 86%.
In test [3], `COc1cc(N(C)c2ccnc3ccc(C(F)(F)F)cc23)cc(OC)c1OC` showed a % binding of 84%.
`CN(C)CCOc1ccc(-c2nc(-c3ccncc3)c(-c3ccc4c(c3)CC/C4=N\O)[nH]2)cc1`: the % of control in test [4] is 87%.
Turning to `Nc1cnc(N2CCc3cc(S(=O)(=O)Nc4c(F)cc(Cl)cc4F)cc(N4CCCC4=O)c32)nc1` [TP-020n], the % of control in test [5] came to 87%.
Regarding `CCC(=O)N1CC[C@H](Nc2ncnc3c2CN(c2cnc(OC)c(C(F)(F)F)c2)CC3)C1` [LENIOLISIB], on Thromboxane A2 receptor, the IC50 was more than 30 µM.
Regarding `CC[C@@H]1[C@H](F)C(=O)N[C@@H]1COc1nccc2cc(C(N)=O)c(OC)cc12` [ZIMLOVISERTIB], the % of inhibition in test [6] (at 0.01 µM) was 11%; in test [6] (at 0.04 µM) it was 8.8%; in test [6] (at 0.2 µM), -0.1%; in test [6] (at 1 µM), 21.3%; in test [6] (at 5 µM), 29.2%.
In the case of `CCC(=O)N1CCN(c2ccc(-n3c(=O)ccc4cnc5ccc(-c6cnc7ccccc7c6)cc5c43)cc2C(F)(F)F)CC1`, the % of control in test [7] worked out at 86%.
